Data reported in patent US7495030B2, “(5-(2-hydroxy-4-chlorobenzoyl) aminovaleric acid and salts thereof and compositions containing the same for delivering active agents” (Emisphere Technologies, Inc., priority 2000, dated 2009).

Key:
[1] = Insulin oral delivery in rats, serum human insulin by ELISA and serum glucose; assay type: in vivo, Male Sprague-Dawley rats; conditions: delivery agent compound dose 200 mg/kg, insulin dose 0.5 mg/kg, volume dose 1.0 ml/kg
Experimental: Oral dosing (PO) compositions of delivery agent compound and human zinc insulin (minimum 26 IU/mg available from Calbiochem—Novabiochem Corp, La Jolla, Calif.) were prepared in deionized water. […] The solution was vortexed, then heated (about 37° C.) and sonicated. The pH was adjusted to about 7 to 8.5 with NaOH or HCl.
About 1.25 mg insulin from an insulin stock solution (15 mg/ml made from 0.5409 g insulin and […] deionized water, adjusting with HCl and NaOH to pH 8.15 and to obtain a clear solution using […]) was added to the solution and mixed by inverting.
The typical dosing and sampling protocols were as follows. […] A dosing group of five animals was administered one of the dosing solutions. […] The syringe was filled with dosing solution by drawing the solution through the catheter, which was then wiped dry. The catheter was placed down the esophagus leaving 1 cm of tubing past the incisors. Solution was administered by pressing the syringe plunger.
Serum insulin levels were determined with an Insulin ELISA Test Kit (Kit # DSL-10-1600 from Diagnostic Systems Laboratories, Inc., Webster, Tex.), modifying the standard protocol in order to optimize the sensitivity and linear range of the standard curve for the volumes and concentrations of the samples used in the present protocol. […]

melting point: 140 to 141 °C
SMILES: O=C(O)CCCCNC(=O)c1ccc(Cl)cc1O [Compound 1, 5-(2-Hydroxy-4-Chlorobenzoyl)Aminovaleric Acid]
Mean peak serum insulin [1]: 36.25 ± 2.5 μU/ml
